Molecules are shown by their SMILES.

Data on nine compounds can be found in patent US7566727B2, “2-(1-aza-bicyclo[2.2.2]oct-3-yl)-2,3-dihydro-isoindole-1-one/5,6-dihydro-furo[2,3-c] pyrrol-4-one derivative ligands for alpha 7 nicotinic acetylcholine receptor” (priority 2004, dated 2009).

Sequence of α7 nAChR subtype (Q05941 23-502): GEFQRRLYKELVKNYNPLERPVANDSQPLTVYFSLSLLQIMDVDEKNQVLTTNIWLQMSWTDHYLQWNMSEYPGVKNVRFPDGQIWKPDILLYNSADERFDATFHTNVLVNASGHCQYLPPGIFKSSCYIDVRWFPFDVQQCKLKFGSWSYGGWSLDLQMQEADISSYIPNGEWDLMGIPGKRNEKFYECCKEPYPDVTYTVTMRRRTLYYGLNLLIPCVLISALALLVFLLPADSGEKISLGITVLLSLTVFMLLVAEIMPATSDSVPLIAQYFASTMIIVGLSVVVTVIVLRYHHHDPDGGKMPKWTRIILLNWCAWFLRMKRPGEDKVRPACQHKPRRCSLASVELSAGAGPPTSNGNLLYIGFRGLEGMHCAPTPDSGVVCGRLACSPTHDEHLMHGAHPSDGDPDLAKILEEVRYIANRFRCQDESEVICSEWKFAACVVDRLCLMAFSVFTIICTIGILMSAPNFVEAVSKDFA

This assay has as its target α7 nAChR subtype (Rattus norvegicus, UniProt Q05941). Description: Test A: 125I-α-Bungarotoxin binding to rat hippocampal membranes (affinity at α7 nAChR subtype). The settings on record: [125I]α-BTX displacement, rat hippocampal membranes. How it is done:
Test A—Assay for Affinity at α7 nAChR subtype
125I-α-Bungarotoxin (BTX) binding to rat hippocampal membranes. Rat hippocampi were homogenized in 20 volumes of cold homogenization buffer (HB: concentrations of constituents (mM): tris(hydroxymethyl)aminomethane 50; MgCl2 1; NaCl 120; KCl 5: pH 7.4). The homogenate was centrifuged for 5 minutes at 1000 g, the supernatant was saved and the pellet re-extracted. The pooled supernatants were centrifuged for 20 minutes at 12,000 g, washed, and re-suspended in HB. Membranes (30-80 μg) were incubated with 5 nM [^125I] α-BTX, 1 mg/mL BSA (bovine serum albumin), test drug, and either 2 mM CaCl2 or 0.5 mM EGTA [ethylene glycol-bis(β-aminoethylether)] for 2 hours at 21° C., and then filtered and washed 4 times over Whatman glass fibre filters (thickness C) using a Brandel cell harvester.
Binding data analysis for Tests A and B
IC50 values and pseudo Hill coefficients (nH) were calculated using the non-linear curve fitting program ALLFIT (DeLean A, Munson P J and Rodbard D (1977) Am. J. Physiol., 235:E97-E102). […] Ki values were determined using 6 or more drug concentrations.
One may read the Ki as a dissociation constant, usually derived from enzyme kinetics or from competition with a known ligand. The low end stands for higher affinity, the high end for lower affinity. As for `O=C(Nc1cccc(-c2ccc3c(c2)C(=O)N([C@H]2CN4CCC2CC4)C3)c1)c1ccccc1` [Example 64, N-[3-((R)-2-1-Aza-bicyclo[2.2.2]oct-3-yl-3-oxo-2,3-dihydro-1H-isoindol-5-yl)-phenyl]-benzamide], affinity was put at a Ki of 3.9 nM.
`CC(=O)Nc1ccccc1-c1ccc2c(c1)C(=O)N([C@H]1CN3CCC1CC3)C2` [Example 65, N-[2-((R)-2-1-Aza-bicyclo[2.2.2]oct-3-yl-3-oxo-2,3-dihydro-1H-isoindol-5-yl)-phenyl]-acetamide] showed a Ki of 1150 nM.
The result for `CCN(CC)C(=O)c1cccc(-c2ccc3c(c2)C(=O)N([C@H]2CN4CCC2CC4)C3)c1` [Example 66, 3-((R)-2-1-Aza-bicyclo[2.2.2]oct-3-yl-3-oxo-2,3-dihydro-1H-isoindol-5-yl)-N,N-diethyl-benzamide] reads 20 nM.
Compound `O=C1c2cc(-c3cccc(OCc4ccccc4)c3)ccc2CN1[C@H]1CN2CCC1CC2` [Example 67, 2-(R)-1-Aza-bicyclo[2.2.2]oct-3-yl-6-(3-benzyloxy-phenyl)-2,3-dihydro-isoindol-1-one] returned a Ki of 51 nM.
Turning to `O=C(c1cccc(-c2ccc3c(c2)C(=O)N([C@H]2CN4CCC2CC4)C3)c1)N1CCOCC1` [Example 68, 2-(R)-1-Aza-bicyclo[2.2.2]oct-3-yl-6-[3-(morpholine-4-carbonyl)-phenyl]-2,3-dihydro-isoindol-1-one], the affinity, expressed as Ki, was 44 nM.
With `O=C(c1cccc(-c2ccc3c(c2)C(=O)N([C@H]2CN4CCC2CC4)C3)c1)N1CCCCC1` [Example 69, 2-(R)-1-Aza-bicyclo[2.2.2]oct-3-yl-6-[3-(piperidine-1-carbonyl)-phenyl]-2,3-dihydro-isoindol-1-one], the inhibition constant Ki stood at 23 nM.
Then `O=C(c1cccc(-c2ccc3c(c2)C(=O)N([C@H]2CN4CCC2CC4)C3)c1)N1CCCC1` [Example 70, 2-(R)-1-Aza-bicyclo[2.2.2]oct-3-yl-6-[3-(pyrrolidine-1-carbonyl)-phenyl]-2,3-dihydro-isoindol-1-one], with 14 nM.
On to `CN(C)c1cccc(-c2ccc3c(c2)C(=O)N([C@H]2CN4CCC2CC4)C3)c1` [Example 71, 2-(R)-1-Aza-bicyclo[2.2.2]oct-3-yl-6-(3-dimethylamino-phenyl)-2,3-dihydro-isoindol-1-one], for which the affinity, expressed as Ki, was 4.2 nM.
Turning to `CSc1cccc(-c2ccc3c(c2)C(=O)N([C@H]2CN4CCC2CC4)C3)c1` [Example 72, 2-(R)-1-Aza-bicyclo[2.2.2]oct-3-yl-6-(3-methylsulfanyl-phenyl)-2,3-dihydro-isoindol-1-one], affinity was put at a Ki of 37 nM.
